# Measurements taken from patent US20210161837A1, “METHODS FOR TREATING CANCER WITH RORGAMMA INHIBITORS” (The Regents of the University of California, priority 2016, published 2021).
# Legend:
# MCF-7 = test: Cell viability (CellTiter-GLO), 4 days, ER-positive cells; assay type: cell-based; settings: Homo sapiens, MCF7, 96 h; ER-positive MCF-7, 4 days
# Description: (§1) For cell viability, cells were seeded in 96-well plates at 1500-2500 cells per well (optimum density for growth, depending on the specific cell line) in a total volume of 100 μl media. Serially diluted compounds in 100 μl of media were added to the cells 12 hours later. After 4 days of incubation, Cell-Titer GLO reagents (Promega) were added and luminescence was measured on GLOMAX microplate luminometer (Promega), according to the manufacturer's instructions. All experimental points were set up as sextuplicate as biological replication and the entire experiments were repeated three times. The data are presented as percentage of viable cells with vehicle treated cells set as 100. The estimated in vitro IC50 values were calculated using GraphPad Prism 6 software.
# T47D = test: as above; assay type: cell-based; settings: Homo sapiens, 96 h
# Description: as §1
# [1] = tested on: TNBC cells including MDA-MB468, MDA-MB231, BT20, SUM149 and HCC1937; test: Cell viability (CellTiter-GLO), 4 days, TNBC cells; assay type: cell-based; settings: Homo sapiens, 96 h
# Description: as §1
# AR and AR-V7 expression = test: Immunoblotting and qRT-PCR of AR and AR-V7 expression in C4-2B and VCaP cells; assay type: cell-based, human
# Description: Data shown are mean±s.d. Significance was calculated using Student's t-test. *p<0.05, **p<0.01.
# (§2) Total RNA was isolated from cells in 6-well or 10-cm plates or from xenograft tumors, and the cDNA was prepared, amplified and measured in the presence of SYBR as described in Yang, P., et al., Molecular and cellular biology 32, 3121-3131 (2012). Briefly, the fluorescent values were collected and a melting curve analysis was performed. Fold difference was calculated as described previously Yang, P., et al. (see, id). The experiments were performed at least three times with data presented as mean values±s.d. Cell lysates were analyzed by immunoblotting with antibodies specifically recognizing RORγ, AR, AR-V7 and the indicated proteins.
# [2] = tested on: key proliferation and survival proteins, including Myc; test: Immunoblotting of key proliferation and survival proteins; assay type: cell-based, human; settings: 3 days
# Description: Data shown are mean percentage of apoptotic cells±s.d. […] Data shown are mean±s.d. Significance was calculated using Student's t-test. *p<0.05, **p<0.01.
# (§3) (a&b) C4-2B and 22Rv1 cell proliferation after the RORγ antagonist treatment. Cells were seeded in 6-well plates and counted after cells were treated with indicated concentrations of RORγ antagonists for 0, 2, 4 and 6 days by Coulter counter. […] (e) representative images of TUNEL positive cells treated with vehicle or the antagonist (5 μM) in 22Rv1 cells are shown. […] Three days later, cells were harvested for immunoblotting with indicated antibodies.
# as §2
# MCF-7-TamR = test: Growth and survival of tamoxifen-resistant breast cancer cells; assay type: cell-based, human
# MDA-MB468 cells = test: Cell viability (CellTiter-GLO), 4 days, TNBC cells; assay type: cell-based, human
# Description: (§4) The “No.” label for each compound corresponds to the “Structure No.” in Table 2 (e.g., “No. 36”=“Structure No. 36” in Table 2). The cell viability curves were measured by CellTiter-GLO.
# as §1, with “growth)” for “growth, depending on the specific cell line)”
# HCC70 cells = test: Cell viability (CellTiter-GLO), 4 days, TNBC cells; assay type: cell-based, human
# Description: as §4
# as §1, with “growth)” for “growth, depending on the specific cell line)”
# HCC1954 = test: Cell viability (CellTiter-GLO), 4 days, HER2-positive cells; assay type: cell-based; settings: Homo sapiens, 96 h; HER2-positive HCC1954, 4 days
# Description: as §1
# [3] = tested on: prostate cancer C4-2B cells; test: Cell viability (Cell-Titer GLO), 4 days, prostate cancer cells; assay type: cell-based, human
# Description: The “No.” label for each compound corresponds to the “Structure No.” in Table 2 (e.g., “No. 36”=“Structure No. 36” in Table 2). Experiments were independently performed three times.
# as §1
# MCF-7-C6 = test: Growth and survival of radiation-resistant breast cancer cells; assay type: cell-based, human; settings: radiation-resistant MCF-7-C6
# [4] = tested on: endogenous AR expression in RWPE1 and PZ-HPV7 cells; test: Immunoblotting of AR expression in non-malignant prostate epithelial cells; assay type: cell-based, human
# Description: Immunoblotting analysis of RORγ and AR expression in non-malignant, human prostate epithelial RWPE1 and PZ-HPV7 cells within indicated treatments is shown.
# as §2
# [5] = tested on: AR-positive PCa cell models including 22Rv1, VCaP, LNCaP, LAPC4 and PC346C; test: Growth inhibition in other AR-positive PCa cell models; assay type: cell-based, human
# Description: as §3
# LNCaP, C4-2B, 22Rv, PC-3, and PC346C prostate cancer cells were cultured in RPMI1640, VCaP, HEK293T and human fibroblast IMR90 cells were in DMEM, LAPC-4 was in Iscove's MEM (all from Corning), and RWPE-1 and PZ-HPV-7 were in Keratinocyte Serum Free Medium (K-SFM) (Invitrogen) with the supplements. All the culture media except for RWPE-1 and PZ-HPV-7 were supplemented with 10% FBS (Hyclone) except indicated otherwise. For experiments, C4-2B cells were cultured in RPMI supplemented with 9% cds-FBS plus 1% regular FBS (to mimic the CRPC condition) unless indicated otherwise and 22Rv1 cells were cultured in RPMI supplemented with 10% cds-FBS. Cells were grown at 37° C. in 5% CO2 incubators. LNCaP, VCaP, 22Rv1, PC-3, 293T, IMR90, PZ-HPV-7 and RWPE-1 were from ATCC. C4-2B was from UroCor Inc. (Oklahoma City, Okla.). […]
# LNCaP cells = test: Cell viability (CellTiter-GLO), 4 days; assay type: cell-based; settings: Homo sapiens, read-out: inhibitory potency (growth inhibition)
# Description: as §3
# LNCaP, C4-2B, 22Rv, PC-3, and PC346C prostate cancer cells were cultured in RPMI1640, VCaP, HEK293T and human fibroblast IMR90 cells were in DMEM, LAPC-4 was in Iscove's MEM (all from Corning), and RWPE-1 and PZ-HPV-7 were in Keratinocyte Serum Free Medium (K-SFM) (Invitrogen) with the supplements. All the culture media except for RWPE-1 and PZ-HPV-7 were supplemented with 10% FBS (Hyclone) except indicated otherwise. […]
# For cell viability, cells were seeded in 96-well plates at 1500-2500 cells per well (optimum density for growth, depending on the specific cell line) in a total volume of 100 μl media. […] After 4 days of incubation, Cell-Titer GLO reagents (Promega) were added and luminescence was measured on GLOMAX microplate luminometer (Promega), according to the manufacturer's instructions. […] The estimated in vitro IC50 values were calculated using GraphPad Prism 6 software.
# [6] = tested on: OVCAR420, T24, ECC1, T98G, SUDHL4, SUDHL6, HCT116 and docetaxel-resistant C4-2B cells; test: Cell viability (CellTiter-GLO), 4 days, further cancer types; assay type: cell-based; settings: Homo sapiens, 96 h, ovarian, bladder, endometrial, glioblastoma, DLBCL, colon
smiles,measurement,setting,value
"O=C(Cc1ccccc1[N+](=O)[O-])Nc1ccc(-c2ccc(C(O)(C(F)(F)F)C(F)(F)F)cc2F)cc1 [XY018, N-(2′-fluoro-4′-(1,1,1,3,3,3-hexafluoro-2-hydroxypropan-2-yl)-[1,1′-biphenyl]-4-yl)-2-(2-nitrophenyl)acetamide]",IC50,MCF-7,~9000 nM
same,IC50,T47D,~9000 nM
same,IC50,[1],500 to 3000 nM
same,AR and AR-V7 expression,AR and AR-V7 expression,inhibited by XY018 in dose-dependent manner
same,"expression of key proliferation and survival proteins, including Myc",[2],strongly inhibited the expression
same,growth inhibitory effect of tamoxifen in combination with XY018,"MCF-7-TamR; MCF-7-TamR, tamoxifen plus XY018",synergistic growth inhibitory effect
same,inhibition of growth and survival,"MCF-7-TamR; tamoxifen-resistant MCF-7-TamR, XY018 alone",potently inhibiting the growth and survival
same,inhibition of growth and survival,MDA-MB468 cells,strongly inhibited the growth and survival
same,inhibition of growth and survival,HCC70 cells,strongly inhibited the growth and survival
same,IC50,HCC1954,1470 nM
same,inhibition of growth and survival,[3],strongly inhibited the growth and survival
same,inhibition of growth and survival,MCF-7-C6,potently inhibiting the growth and survival
same,effect on endogenous AR expression in non-malignant cells,[4],did not have any significant effect
same,growth inhibition,[5],strong growth inhibition
same,IC50,LNCaP cells,2100 nM
same,IC50,[6],< 3500 nM
